Consider nine substances from publication PMC11329928, “Design, synthesis and structure-activity relationship (SAR) studies of an unusual class of non-cationic fatty amine-tripeptide conjugates as novel synthetic antimicrobial agents” (Frontiers in Pharmacology, 2024).

A value given as a limit tells only on which side of the number the result lay.

Data set [1] is described as follows: RP-HPLC retention time used to determine hydrophobicity. It counts as physicochemical. As to conditions: analytical RP-HPLC, C18 Sunfire column (4.6 mm × 150 mm, 3.5 μm); A = 0.05% TFA in water, B = acetonitrile; 10% to 100% B in 20 min then isocratic 100% B 10 min; 217 and 254 nm; used as measure of hydrophobicity. As to the method:
The purity of the lipopeptides was checked by analytical RP-HPLC on an Agilent Infinity instrument equipped with a Diode Array and a C18 Sunfire column (4.6 mm × 150 mm, 3.5 μm). As mobile phase A:B mixtures were used, where A = 0.05% TFA in water and B = acetonitrile. The samples were analyzed at 217 and 254 nm in a gradient from 10% of B to 100% of B in 20 min followed by isocratic 100% of B in 10 min.
Retention times were used to determine the hydrophobicity ([Neubauer et al., 2020]). HRMS (EI+) was carried out in an Agilent 6,520 Accurate-Mass Q-TOF LC/MS spectrometer using water/acetonitrile mixtures. Results can be found in Supplementary Section S3, S4.

The test system of data set [2] is Streptococcus pneumoniae R6. The data set can be described thus: Growth inhibition / lysis screening of planktonic cultures (OD550/600). The class given is cell-based. On the set-up: key: (+++) full inhibition; (++) partial inhibition; (+) growth retardation; -: (−) no effect. As to conditions: S. pneumoniae R6, 50 and 100 μM compound added at early logarithmic phase (T1), OD550/600 followed 10 h, 37°C. The procedure:
(§1) Planktonic cultures of selected pathogens (S. pneumoniae R6, S. pyogenes ^T, Staphylococcus aureus ^T, Escherichia coli DH10B, and Pseudomonas aeruginosa PAO1 strains) on early logarithmic-phase (T1) were assayed for their sensitivity to a broad range of DICAM compounds, as indicated in Table 1. Their bacteriostatic or lytic effect was first tested by measuring the variation of the OD550/600 as a function of time (10 h) when (50/100 μM) DICAMs were added, compared to untreated controls. The screening results, summarized in Table 1, evidenced that a potent antimicrobial activity may exist even when the negative charge of the peptide was higher than in the prototype compounds.
(§2) Susceptibility to DICAMs was first tested by growth-inhibition assays at 50 and 100 μM of compound. Briefly, working solutions at 5 mM or 10 mM DICAM in pure DMSO were prepared from DICAM stocks (40 mM in pure DMSO) and diluted with fresh culture medium to 5× the desired final concentration. Aliquots (50 µL) of these solutions were added to 200 µL of bacterium cultures grown to early exponential phase (OD550/600 c. a. 0.15–0.2 in sterile 96-well plates (Cultek, Spain). Incubation continued for 10 h at 37°C and turbidity (OD550/600) values were measured every 20 min to monitor growth and lysis, using a VersaMax microplate reader (Molecular Devices; United Kingdom). Next, the activity dependence on DICAM’s dose was examined by measuring the turbidity of treated and untreated cultures as a function of time. Also, the decay of bacterial viability (CFU/mL) at selected times of treatment was assessed by colony counting on LB-agar or TSA plates after overnight incubation at 37°C. By default, 10 μL of 10-fold serially diluted samples were plated, which set the lower detection limit at 10^2 CFU/mL (10^1 CFU/mL when 100 μL of the undiluted sample was seeded).

For data set [3], the system named is Escherichia coli DH10B. Kind of data set: Growth inhibition screening of planktonic cultures (OD550/600). The class given is cell-based. On the set-up: key: (+++) full inhibition; (++) partial inhibition; (+) growth retardation; -: (−) no effect. As to conditions: E. coli DH10B, 50 and 100 μM compound added at T1, OD550/600 followed 10 h, 37°C. As to the method: as §1, §2

Data set [4] deals with Pseudomonas aeruginosa PAO1. The description is as above. The class given is cell-based. The arrangement: key: (+++) full inhibition; (++) partial inhibition; (+) growth retardation; -: (−) no effect. As to conditions: P. aeruginosa PAO1, 50 and 100 μM compound added at T1, OD550/600 followed 10 h, 37°C. As to the method: as §1, §2
The test system of data set [5] is Escherichia coli DH10B. Kind of data set: Resting-cell viability (CFU) with 0.5 mM EDTA. It counts as cell-based. As to conditions: E. coli DH10B, 100 µM compound, 3 h incubation. The procedure:
(§3) Addition of tested compounds to the culture medium had little or no effect on bacterial growth, even at a concentration of 100 μM (Table 1). Since inactivity could arise from the inability of DICAMs to cross the outer membrane, we next tested their effect on bacterial suspensions in the absence or the presence of 0.5 mM EDTA, an outer membrane permeating agent. A decrease of approximately 90% in bacterial viability was observed after 3 h treatment with DICAM 2 and DICAM 4, compared to controls in EDTA-containing buffer (Supplementary Figure S5). No variations were found with the other compounds tested (Table 1), showing that only DICAMs containing Ala/Asn- Pro -Glu tripeptides were able to access the cell membrane and kill these pathogens when the outer membrane permeability was enhanced.
(§4) For activity assays on resting cells, bacteria grown to exponential phase (OD600 ≈ 0.3) were centrifuged and washed with 20 mM Tris-HCl (pH 7.5), adjusting the final OD600 to ≈0.6 (≈10^8 CFU/mL) with the same buffer. If required, EDTA (0.5 mM final concentration) was next added and the bacterial suspension was dispensed (225 µL per well) in 96-well plates, and then treated with 100 µM DICAM (25 µL). Samples were incubated at 37°C for 3 h and turbidity measurements were taken at selected intervals, also measuring the decay in cell viability at the end of incubation. Controls with buffer (with and without 1% DMSO), 100 µM DICAM, or 0.5 mM EDTA were run in parallel.

Data set [6] concerns Pseudomonas aeruginosa PAO1. The data set can be described thus: Resting-cell viability (CFU) with 0.5 mM EDTA. It counts as cell-based. As to conditions: P. aeruginosa PAO1, 100 µM compound, 3 h incubation. As to the method:
as §3, §4

Data set [7] has as its system S. pneumoniae D39. It counts as cell-based, Streptococcus pneumoniae.
Text: First, the substitution of the fatty amino chain of 18 carbon atoms of the reference compound DICAM 2 by either an OMe group (methylated tripeptide DICAM 5) or an amine with 12 carbon atoms (DICAM 9) abolished the activity against all three pathogens. However, the activity remained intact when the chain of the fatty amine of prototypes DICAMs 1 and 4 was two carbon atoms shorter (DICAM 10 and DICAM 12, respectively), based on S. pneumoniae and S. pyogenes results. […] Third, Glu and Ala were tolerated as C-terminal residues of the lipotripeptides. […] In addition, deletion of the C-terminal Glu (DICAM 13) eradicated the activity against S. pneumoniae and S. aureus. However, a delay and small inhibition of S. pyogenes ^T growth was still observed. Fourth, Glu (DICAMs 19 and 20) and Orn (DICAMs 21 and 22) were tolerated as N-terminal residues, with the impact of these modifications being pathogen-dependent. […] SAR studies continued by measuring the dose dependence of DICAM’s activity at T1 with all the compounds found to be active against S. pyogenes or S. aureus in the initial screening, and all but one compound in the case of S. pneumoniae. The OD values of bacterial cultures were monitored after DICAM addition, and the decrease in the number of viable bacteria was measured relative to controls (Figures 4–6; Supplementary Figure S1). As antibacterial efficacy may decline with the bacterium dose in the inoculum ([Belley et al., 2009]; [Udekwu et al., 2009]; [Luca et al., 2013]), the assays were performed using the bacterial concentrations necessary for the fluorescence experiments in Section 2.3 (10^7–10^8 CFU/mL). At these high bacterial densities, MICs were determined as the DICAM concentration at which bacteria neither grow nor are killed (the stationary concentration (SC)), following [Udekwu et al., 2009]. By fitting the logarithmic plot of cell viability decrease vs. the DICAM dose to a Hill function (see Section 5.2.3.1) we were able to determine the maximum variation in viability (Δlogmax = ∆log f - ∆log 0, where ∆log f and ∆log 0 are the upper and lower limits of Δlog) in the assay conditions, the SC concentration (Δlog = 0), the dose required for half-variation in Δlogmax (K 1/2), and the cooperativity of the antimicrobial effect (N H).
as §2
As antibacterial efficacy may decline with the bacterium dose in the inoculum ([Belley et al., 2009]; [Udekwu et al., 2009]; [Luca et al., 2013]), activity assays were performed using the bacterial concentrations required for the fluorescence experiments in Section 2.3 (10^7–10^8 CFU/mL). At such bacterial densities, MICs were determined as the DICAM concentration at which bacteria neither grow nor are killed under assay conditions (the stationary concentration (SC)), as indicated in Section 2.2. […]

Data set [8] concerns Staphylococcus aureus T. The data set can be described thus: Growth inhibition screening of planktonic cultures (OD550/600). The class given is cell-based. On the set-up: key: (+++) full inhibition; (++) partial inhibition; (+) growth retardation; -: (−) no effect. As to conditions: S. aureus T, 50 and 100 μM compound added at T1, OD550/600 followed 10 h, 37°C. The procedure: as §1, §2

Data set [9] has as its system Streptococcus pyogenes T. The data set is described as above. The class given is cell-based. As to conditions: S. pyogenes T, 50 and 100 μM compound added at T1, OD550/600 followed 10 h, 37°C. The arrangement: key: (+++) full inhibition; (++) partial inhibition; (+) growth retardation; -: (−) no effect. The procedure: as §1, §2

For the substance Cbz-Ala- Pro -Trp-NH-C18H37 [DICAM 15], the Retention time in data set [1] came to 23.18 min. For the same substance, the “Growth halt or lysis (50/100 μM), Spn” value in [2] is recorded as “-”. The “Growth halt or lysis (50/100 μM), Ec” value in data set [3] is recorded as “-”. Moreover, the “Growth halt or lysis (50/100 μM), Pa” value in [4] is recorded as “-”. For the same substance, the “CFU's decay in the presence of 0.5 mM EDTA, Ec (data in parenthesis)” value (shortened to “CFU's decay … Ec (data in parenthesis)”) in [5] is “(−) ((−) ≤ 0.3 log-units)”. Also, in [6], the “CFU's decay in the presence of 0.5 mM EDTA, Pa (data in parenthesis)” value (“CFU's decay … Pa (data in parenthesis)” below) is “(−) ((−) ≤ 0.3 log-units)”.
With “Cbz-Asn- Pro -Glu(O^tBu)-NH-C18H37 [DICAM 8]”, the “Growth halt or lysis (50/100 μM), Spn” value in data set [2] is reported as “-”.
“Ala- Pro -Glu-NH-C16H33 · HCl [DICAM 12]”: in data set [1], the Retention time came out at 17.57 min. Moreover, in data set [2], the “Growth halt or lysis (50/100 μM), Spn” value is recorded as “+++”. Moreover, in [7] (S. pneumoniae D39, within 60 min), the “Reduction of the number of viable cells at saturating doses” value is on record as not below 4.6 log-units. Also, the “Reduction of the number of viable cells at 3 × SC, S. pneumoniae” value in data set [7] (after 1-h incubation at 3 × SC values) is recorded as 99.2%–99.8.
In data set [1], “Ala- Pro -Glu-NH-C12H25 · HCl [DICAM 11]” had a Retention time of 15.29 min. In data set [2], the “Growth halt or lysis (50/100 μM), Spn” value was “-”.
For Cbz-Asn- Pro -Glu-NH-C12H25 [DICAM 9], in that order: 15.80 min and “-”.
In data set [1], Pro -Glu-NH-C18H37 · HCl [DICAM 18] showed a Retention time of 19.54 min. Further, the “Growth halt or lysis (50/100 μM), Spn” value in data set [2] is “-”. For the same substance, the “Growth halt or lysis (50/100 μM), Ec” value in [3] is on record as “-”. In data set [4], the “Growth halt or lysis (50/100 μM), Pa” value is on record as “-”.
“Ala- Pro -Trp-NH-C18H37 · HCl [DICAM 16]” came in with a Retention time in data set [1] of 21.04 min. For the same substance, in data set [2], the “Growth halt or lysis (50/100 μM), Spn” value is given as “-”. Besides, the “Growth halt or lysis (50/100 μM), Ec” value in data set [3] is “-”. The “Growth halt or lysis (50/100 μM), Pa” value in data set [4] was “-”. Besides, the “Growth halt or lysis (50/100 μM), Sa T” value in data set [8] is “-”. Further, the “Growth halt or lysis (50/100 μM), Spy T” value in data set [9] is listed as “-”. Moreover, the “CFU's decay … Ec (data in parenthesis)” value in [5] was “(−) ((−) ≤ 0.3 log-units)”. For the same substance, the “CFU's decay … Pa (data in parenthesis)” value in data set [6] is “(−) ((−) ≤ 0.3 log-units)”.
For the substance Asn- Pro -Glu-OMe · HCl [DICAM 5], in [1], the Retention time is given as 5.15 min. For the same substance, the “Growth halt or lysis (50/100 μM), Spn” value in [2] is recorded as “-”.
The substance “Asn- Ala -Glu-NH-C18H37 · HCl [DICAM 17]” returned a Retention time in data set [1] of 18.63 min. Besides, the “Growth halt or lysis (50/100 μM), Spn” value in data set [2] is reported as “-”. In addition, the “Growth halt or lysis (50/100 μM), Ec” value in [3] is reported as “-”. Besides, the “Growth halt or lysis (50/100 μM), Pa” value in data set [4] is given as “-”. Besides, the “Growth halt or lysis (50/100 μM), Sa T” value in [8] is given as “-”. In addition, in [9], the “Growth halt or lysis (50/100 μM), Spy T” value is “-”. Also, in data set [5], the “CFU's decay … Ec (data in parenthesis)” value is recorded as “(−) ((−) ≤ 0.3 log-units)”. Also, in [6], the “CFU's decay … Pa (data in parenthesis)” value is “(−) ((−) ≤ 0.3 log-units)”.
